Measurements from PubChem BioAssay AID449750 (Broad Institute, 2010).
The source made the active and inactive calls. No rule for the calls is given here.

Test: non-covalent RecA intein splicing inhibitors, dose response, biochemical, cell-free, fluorescence, secondary screen (AID 449750)

Row | SMILES | AC50
1 | COc1ccc(S(=O)(=O)/N=C2\C=C(Nc3ccc(O)cc3)C(=O)c3ccccc32)cc1 | 2.53 µM
2 | Cc1c(C#N)c(NC(=O)CCl)n(Cc2cccs2)c1C | 8.86 µM
3 | CCOc1cc(C(c2c(C)[nH][nH]c2=O)c2c(C)[nH][nH]c2=O)cc(Br)c1OC | 15.8 µM
4 | Cn1c(-c2ccccc2)c(C(=O)CCl)c2ccccc21 | 22.9 µM
5 | O=C(Oc1ccc(-c2nnco2)cc1)c1ccco1 | > 38 µM (inactive)
6 | C=CCc1cccc(C=Nc2c[nH]c(=O)[nH]c2=O)c1O | > 38 µM (inactive)
7 | COc1ccc(C(=O)/C(=C/c2cccs2)c2nc3ccccc3o2)cc1 | > 38 µM (inactive)
8 | Cc1ccc(-n2nc(C)c3c2OC(N)=C(C#N)C3c2cccs2)cc1 (stereo not drawn) | 21.1 µM
9 | CSc1nc(-c2ccco2)nn1C(=O)c1cccs1 | > 38 µM (inactive)
10 | Cc1ccc(NC2=C(N3CCCCC3)C(=O)c3ccccc3C2=O)cc1 | 8.12 µM
11 | COc1ccc(C(CCN(Cc2ccc(OC)c(OC)c2)C(=O)CCl)c2ccccc2)cc1 (stereo not drawn) | 0.613 µM
12 | CCOC(=O)CN1C(=O)N[C@@H](c2cccc(C(F)(F)F)c2)C(C(C)=O)=C1C | > 38 µM (inactive)
13 | Oc1cc(O)c2c(c1)O[C@H](c1ccc(O)c(O)c1)[C@H](O)C2 | > 38 µM (inactive)
14 | COc1ccc(/C(=N/OC(C)=O)c2nccc3cc(OC)c(OC)cc23)cc1OC | > 38 µM (inactive)
15 | CN1C(=O)/C(=N\OC(=O)c2cccc3ccccc23)c2ccccc21 | > 38 µM (inactive)
16 | COc1cc(C(=O)c2nccc3cc(OC)c(OC)cc23)c([N+](=O)[O-])cc1OC | 18.3 µM
17 | O=C1c2cc([N+](=O)[O-])ccc2-c2ncccc21 | > 38 µM (inactive)
18 | CCc1[nH]nc2c1C(c1ccc(C)o1)C(C#N)=C(N)O2 (stereo not drawn) | > 38 µM (inactive)
19 | COc1ccc(C(=O)Nc2ccc(O)c3ccccc23)cc1OC | > 38 µM (inactive)
20 | CC(C)CCn1c(Sc2nc3ccccc3o2)nc2c1c(=O)[nH]c(=O)n2C | 5.08 µM
21 | COC(CN(C(=O)CCl)C(C(=O)NC1CCCCC1)c1ccc(C)cc1)OC (stereo not drawn) | 17.9 µM
22 | Cc1cc2c3c(c1)C(C)CC(C)(C)N3C(=O)C2=C(C#N)C#N (stereo not drawn) | > 38 µM (inactive)
23 | Cc1sc(NC(=O)/C=C/C(=O)O)c(C(N)=O)c1-c1ccc(C(C)(C)C)cc1 | 11.9 µM
24 | CCOC(=O)/C(C#N)=C\c1ccc(O)c(OC)c1 | > 38 µM (inactive)
25 | Cc1ccc(CS(=O)(=O)c2ncc(Cl)c(C(=O)Nc3nnc(C)s3)n2)cc1 | > 38 µM (inactive)
26 | COc1ccc2[nH]c3c(Cl)ncnc3c2c1 | > 38 µM (inactive)

Row | SMILES | AC50
27 | O=C1C=C(Nc2cccc3cccnc23)c2ccccc2C1=O | 24.2 µM
28 | C=CCN1C(=O)NC(c2ccc(OC)cc2)(C(F)(F)F)S/C1=C(\C#N)c1nnc(N2CCOCC2)n1-c1ccccc1 (stereo not drawn) | 32.4 µM
29 | O=C(NC1C(=O)NNC1c1ccccc1)c1ccccc1 (stereo not drawn) | > 38 µM (inactive)
30 | O=C(O)c1ccc2c3c(ncnc13)-c1ccccc1C2=O | 7.47 µM
31 | O=C(CCCN1C(=O)/C(=C\c2ccccc2)SC1=S)Nc1ccc(O)cc1C(=O)O | 32.7 µM
32 | CCOC(=O)/C=c1\s/c(=C(\C#N)C(N)=O)n(-c2ccccc2)c1=O | > 38 µM (inactive)
33 | COC(=O)c1ccccc1S(=O)(=O)N1CCC(NC(=O)c2ccccc2)CC1 | > 38 µM (inactive)
34 | CCCc1c(-c2ccc(O)cc2)nn(-c2ccc(O)cc2)c1-c1ccc(O)cc1 | 4.37 µM
35 | CNC(=O)/C(C#N)=C/c1c(N(Cc2ccccc2)Cc2ccccc2)nc2c(C)cccn2c1=O | 13 µM
36 | O=C(NNC(=O)c1ccc2ccccc2c1O)c1ccccc1Cl | > 38 µM (inactive)
37 | Cc1ccc(NC(=O)c2cnc(SCC(=O)NCC3CCCO3)n(C)c2=O)cc1C (stereo not drawn) | > 38 µM (inactive)
38 | CCCc1[nH]nc2c1C(c1ccsc1)C(C#N)=C(N)O2 (stereo not drawn) | > 38 µM (inactive)
39 | [O-][n+]1c2c(nc3c1-c1ccccc1C3O)CCCC2 (stereo not drawn) | 31.2 µM
40 | CCC(C)NC(=O)c1c(N)n(Cc2ccc3c(c2)OCO3)c2nc3ccccc3nc12 (stereo not drawn) | 26.7 µM
41 | COc1cc(C2C(C#N)=C(N)Oc3c2c(-c2ccccc2)nn3-c2ccccc2)cc(OC)c1OC (stereo not drawn) | 29.9 µM
42 | CC(C)c1[nH]nc2c1C1(CCN(Cc3ccccc3)CC1)C(C#N)=C(N)O2 | > 38 µM (inactive)
43 | Cc1[nH]n(-c2ccccc2)c(=O)c1C(C[N+](=O)[O-])c1ccccc1Cl (stereo not drawn) | 7.38 µM
44 | Cc1ccc(C2C(C#N)=C(N)Oc3nc(-c4ccccc4)[nH]c32)o1 (stereo not drawn) | > 38 µM (inactive)
45 | Cc1cccc(CS(=O)(=O)c2ncc(Cl)c(C(=O)Nc3ccc(F)cc3)n2)c1 | > 38 µM (inactive)
46 | O=Cc1sc(=O)n(Cc2cccc(C(=O)O)c2)c1Cl | > 12 µM (inactive)
47 | Cc1ccc2c(c1)c1c(n2CC(O)CN2CCCCCC2)CCCC1 (stereo not drawn) | > 38 µM (inactive)
48 | Nc1cc2nn(-c3ccccc3)nc2cc1Cl | 7.05 µM
49 | CC(=O)Oc1ccc2c(=O)oc(-c3ccccc3C)nc2c1 | > 38 µM (inactive)
50 | CN(Cc1ccc(Cl)cc1)C(=O)CCl | 10.2 µM
51 | Cc1ccc(C2C(C#N)=C(N)Oc3n[nH]c(-c4cccs4)c32)cc1 (stereo not drawn) | 15.3 µM
52 | C[n+]1c2ccccc2nc2ccc(NCCO)cc21 | 10.1 µM

Row | SMILES | AC50
53 | COc1ccc(-n2nc3c(c2NC(=O)CCl)CSC3)cc1 | 26.9 µM
54 | CCOC(=O)CSCC(=O)N1N=C(c2cccs2)CC1c1ccc(F)cc1 (stereo not drawn) | 16.9 µM
55 | CC1OC(Nc2cccc3ccccc23)C(O)C(O)C1O (stereo not drawn) | > 38 µM (inactive)
56 | CCOC(=O)CNc1nnc(SCC(=O)OCC)[nH]c1=O | 10.2 µM
57 | CC(CCn1cccn1)NC(=O)CCc1nnc(CCc2ccccc2)o1 (stereo not drawn) | > 38 µM (inactive)
58 | c1ccc(CCNCc2cccs2)cc1 | > 38 µM (inactive)
59 | Cc1ccc(NC2=C/C(=N\S(=O)(=O)c3cccs3)c3ccccc3C2=O)c(C)c1 | 0.304 µM
60 | COc1ccc(NC(=O)c2cccc(N3C(=O)C4C5C=CC(C5)C4C3=O)c2)cc1Cl (stereo not drawn) | > 38 µM (inactive)
61 | Cc1nc2c(-c3ccc(F)cc3)c(C)[nH]n2c(=O)c1Cl | > 38 µM (inactive)
62 | N=c1c2c(-c3ccccc3)c(-c3ccccc3)n(Cc3ccco3)c2ncn1Cc1ccco1 | 6.99 µM
63 | C[C@@H]1CC=C[C@H]2[C@H]1C(=O)N(Cc1ccccc1)[C@H]2c1ccc(F)c(Br)c1 | 17.9 µM
64 | N#Cc1ncc(-c2ccc3c(c2)OCCOCCOCCOCCO3)nc1C#N | > 38 µM (inactive)
65 | CC(C)(C)c1[nH]nc2c1C(c1ccco1)C(C#N)=C(N)O2 (stereo not drawn) | 38.8 µM
66 | COc1cc(C(c2c(C)[nH][nH]c2=O)c2c(C)[nH][nH]c2=O)ccc1OCc1ccc([N+](=O)[O-])cc1 | 6.41 µM
67 | O=C1C(=O)c2ccccc2C(O)=C1CCCCl | 35.6 µM
68 | Cc1cccc(N2CC(C(=O)OCC(=O)c3ccc(OC(=O)c4cccs4)cc3)CC2=O)c1C (stereo not drawn) | > 38 µM (inactive)
69 | CC(=O)c1ccc(-c2cccc(-c3nc4ccccn4c3NC3CCCCC3)c2)cc1 | 6.79 µM
70 | CCOC(=O)c1c(CCl)nc2ccccc2c1-c1ccccc1 | 8.34 µM
71 | Cc1ccc2[nH]c3c(c2c1)CN(C(=O)CN1CCSCC1)CC3 | > 38 µM (inactive)
72 | O=C1/C(=C/c2ccc3c(c2)OCO3)CCC/C1=C\c1ccc2c(c1)OCO2 | > 38 µM (inactive)
73 | O=C(c1ccc(N2CCN(CCO)CC2)nc1)N1CCOCC1 | > 38 µM (inactive)
74 | O=C1C(Cl)=C(N2CCOCC2)C(=O)N1c1cccc(C(F)(F)F)c1 | > 38 µM (inactive)
75 | Cc1ccc(Sc2ccc(NC(=O)CCl)cc2)c(C)c1 | 1.18 µM
76 | COc1ccc(Br)cc1[C@H]1[C@@H]2C=CCC[C@@]2(C)C(=O)N1Cc1ccccc1 | > 38 µM (inactive)
77 | CCOc1cc(/C=C2\C(=O)N(c3ccc(C(N)=O)cc3)N=C2C)ccc1OC(=O)c1cccs1 | 2.76 µM
78 | O=c1[nH]cc(N=Cc2cc([N+](=O)[O-])ccc2O)c(=O)[nH]1 | > 38 µM (inactive)

Row | SMILES | AC50
79 | Cc1oc2c(c1C(=O)NCc1cccnc1)C(=O)c1ccccc1C2=O | 1.4 µM
80 | Nc1ccc2nc(Cc3ccccc3)[nH]c2c1 | > 38 µM (inactive)
81 | N#CC1(NC(=O)COC(=O)c2cc(O)c3ccccc3c2O)CCCCC1 | 10.2 µM
82 | Cc1ccccc1CS(=O)(=O)c1ncc(Cl)c(C(=O)Nc2ccc(F)cc2)n1 | > 38 µM (inactive)
83 | CCOc1cc(/C=C2/SC(=S)N(Cc3ccccc3)C2=O)ccc1O | > 38 µM (inactive)
84 | COc1ccc2ccc3c(c2c1)N=CC1(O3)N(C)c2ccccc2C1(C)C (stereo not drawn) | 4.49 µM
85 | O=C1NC(c2ccc(-c3ccccc3[N+](=O)[O-])o2)C(C(=O)c2ccc(F)cc2)C(O)(C(F)(F)F)N1 (stereo not drawn) | 34.4 µM
86 | Cc1ccc(-c2noc(-c3ccccc3C(=O)N3CCOCC3)n2)cc1 | > 38 µM (inactive)
87 | CCCCCCCCCCOC(=O)Cn1c(COc2cccc(OC)c2)[n+](C)c2ccccc21 | 9.12 µM
88 | COc1cc(C2NC(=O)C(C#N)=C(Nc3cccc(C)c3)S2)ccc1O (stereo not drawn) | 3.17 µM
89 | Cc1ccc(N2C(=O)NC(=O)/C(=C/c3ccc(OC(=O)c4cccs4)cc3)C2=O)cc1 | 5.9 µM
90 | CCCCn1c(NC(=O)c2ccc(Br)o2)c(S(=O)(=O)c2ccccc2)c2nc3ccccc3nc21 | > 38 µM (inactive)
91 | CC(C)CC1C(C#N)=C(N)Oc2n[nH]c(-c3ccccc3)c21 (stereo not drawn) | 23.1 µM
92 | COc1cccc(C(c2c(C)[nH]n(-c3ccccc3)c2=O)c2c(C)[nH]n(-c3ccccc3)c2=O)c1O | 2.35 µM
93 | COc1cccc(NC(=S)/C(=C(\[O-])c2ccc(OC(F)F)cc2)[n+]2ccccc2)c1 | 28.1 µM
94 | CC1=NN(c2ccccc2)C(=O)/C1=C/c1c(O)[nH]c(=O)[nH]c1=O | > 38 µM (inactive)
95 | COc1ccccc1-c1cc(C(F)(F)F)nc(S(=O)(=O)CCCC(=O)N2CCOCC2)n1 | 13.6 µM
96 | CCc1ccc(S(=O)(=O)/N=C2\C=C(Nc3ccc(O)cc3)C(=O)c3ccccc32)cc1 | 0.56 µM
97 | COc1ccc(OCc2cc(C(=O)N3CCCC(OC)C3)no2)c2ccccc12 (stereo not drawn) | > 38 µM (inactive)
98 | O=C(Oc1cccc(OC(=O)c2ccco2)c1)c1ccco1 | 5.11 µM
99 | O=C(Nc1ccccc1)Nc1ccc(O)c2ccccc12 | 14.4 µM
100 | O=C(NCc1cccnc1)/C(=C/c1ccc(-c2ccc(Cl)cc2)o1)S(=O)(=O)c1ccccc1 | 32.4 µM
101 | CN1c2ccccc2C(C)(C)C12C=Nc1c(cc(N3CCOCC3)c3ccccc13)O2 (stereo not drawn) | > 38 µM (inactive)
102 | N#C/C(=C\c1cccc(O)c1)c1nc2ccccc2o1 | > 38 µM (inactive)
103 | CC1=NN(c2ccccc2)C(=O)/C1=C\c1cn(C)c2ccccc12 | > 38 µM (inactive)
